Experimental data taken from patent US20210403485A1, “PYRAZOLOPYRIMIDINE DERIVATIVE AS SELECTIVE TRK INHIBITOR” (SHANDONG LUYE PHARMACEUTICAL CO., LTD., priority 2018, published 2021).
Where two headings read alike, the source gives them in different places.

Key:
[1] = target: T1, TrkA (Homo sapiens, UniProt P04629); assay: Kinase inhibitory activity (33P-ATP, filtration-binding method, Reaction Biology Corp.); format: biochemical; details: read-out: Half maximal inhibitory concentration IC50 for kinases, TrkA
T1 construct: purchased Reaction Biology Corp
Experimental: (§1) The mixture was incubated at room temperature for 20 minutes, added with ^33P-ATP at a certain concentration to start the reaction, and then incubated at room temperature for 120 minutes. Finally, the radioactivity of the reactant was detected by the filtration-binding method. The final kinase activity was expressed as the ratio of the remaining kinase activity in the test sample to the kinase activity of the DMSO control. The dose-response curves were fitted and IC50 values were calculated by GraphPad software.

[2] = target: T2, ALK (Homo sapiens, UniProt Q9UM73); assay: as above; format: biochemical; details: read-out: Half maximal inhibitory concentration IC50 for kinases, ALK
T2 construct: purchased Reaction Biology Corp
Experimental: as §1

[3] = target: T3, Ros1 (Homo sapiens, UniProt P08922); assay: as above; format: biochemical; details: read-out: Half maximal inhibitory concentration IC50 for kinases, Ros1
T3 construct: purchased Reaction Biology Corp
Experimental: as §1

[4] = target: T4, TrkA-G595R (Homo sapiens, UniProt P04629, G595R); assay: as above; format: biochemical; details: read-out: Half maximal inhibitory concentration IC50 for kinases, TrkA-G595R
T4 construct: purchased Reaction Biology Corp
Experimental: as §1

[5] = target: T5, TrkA-G667C (Homo sapiens, UniProt P04629, G667C); assay: as above; format: biochemical; details: read-out: Half maximal inhibitory concentration IC50 for kinases, TrkA-G667C
T5 construct: purchased Reaction Biology Corp
Experimental: as §1

[6] = target: T6, TrkC (Homo sapiens, UniProt Q16288); assay: as above; format: biochemical; details: read-out: Half maximal inhibitory concentration IC50 for kinases, TrkC
T6 construct: purchased Reaction Biology Corp
Experimental: as §1

[7] = target: T7, Ba/F3 LMNA-NTRK1-WT (Homo sapiens, UniProt P04629); assay: Inhibitory activity against cell proliferation (CellTiter-Glo, 72 hours); format: cell-based; details: read-out: Half maximal inhibitory concentration IC50 of cells, Ba/F3 LMNA-NTRK1-WT
T7 construct: fused on or other part: N-terminal part of LMNA as fusion partner (part of the key); P02545 (Prelamin-A/C)
Experimental: (§2) Adenosine Triphosphate (ATP) is an energy carrier commonly used in various life activities in nature, and is the minimum unit for energy storage and transfer. The CellTiter-Glo™ cell viability assay kit uses luciferase as an assay agent, which requires the involvement of ATP in luminescence. The CellTiter-Glo™ reagent is added into cell culture medium to measure the luminescence value. The luminescence signal is directly proportional to the amount of ATP in the system, and the ATP is positively correlated with the number of viable cells. Therefore, the proliferation of cells can be detected by detecting the ATP content using the CellTiter-Glo kit.
(§3) a) Cells in the logarithmic growth phase were collected and counted using a […]. The cell viability was detected by the trypan blue exclusion method, and the cell viability was kept over 90%.
(§4) b) The cell concentration was adjusted; 90 μL of the cell suspension was added to a 96-well plate.
(§5) a) A 10-fold compound solution was prepared, with the highest concentration being 10 μM (a total of 9 concentrations, 3-fold dilution). 10 μL of compound solution was added to each well of a 96-well plate inoculated with cells, and three duplicate wells were set for each compound concentration.
(§6) a) The CTG reagent was thawed and the cell plate was equilibrated to room temperature for 30 minutes.
(§7) b) An equal volume of CTG solution was added to each well.
(§8) c) The plate was shaken on an orbital shaker for 5 minutes to lyse the cells.
(§9) d) The cell plate was placed at room temperature for 20 minutes to stabilize the luminescence signal.
(§10) e) The luminescence value was read.
(§11) The data were analyzed using GraphPad Prism 5.0 software, fitted with nonlinear S-curve regression to give dose-response curves, and IC50 values were calculated therefrom.

[8] = target: T8, Ba/F3 SLC34A2-ROS1-WT (Homo sapiens, UniProt P08922); assay: as above; format: cell-based; details: read-out: Half maximal inhibitory concentration IC50 of cells, Ba/F3 SLC34A2-ROS1-WT
T8 construct: fused on or other part: N-terminal part of SLC34A2 as fusion partner (part of the key); O95436 (Sodium-dependent phosphate transport protein 2B)
Experimental: as §2, §3, §4, §5, §6, §7, §8, §9, §10, §11

[9] = target: T9, BaF3 LMNA-NTRK1-G595R (Homo sapiens, UniProt P04629, G595R, cells depend on it); assay: as above; format: cell-based; details: read-out: Half maximal inhibitory concentration IC50 of cells, BaF3 LMNA-NTRK1-G595R
T9 construct: fused on or other part: N-terminal part of LMNA as fusion partner (part of the key); P02545 (Prelamin-A/C)
Experimental: as §2, §3, §4, §5, §6, §7, §8, §9, §10, §11

[10] = target: T10, BaF3 ETV6-NTRK3-G623R (Homo sapiens, UniProt Q16288, G623R, cells depend on it); assay: as above; format: cell-based; details: read-out: Half maximal inhibitory concentration IC50 of cells, BaF3 ETV6-NTRK3-G623R
T10 construct: fused on or other part: N-terminal part of ETV6 (TEL) as fusion partner (part of the key); P41212 (Transcription factor ETV6)
Experimental: as §2, with “kit. In this test, the cell lines used are Ba/F3 LMNA-NTRK1-WT, Ba/F3 LMNA-NTRK1-F589L, BaF3 LMNA-NTRK1-G595R, BaF3 LMNA-NTRK1-G667A, BaF3 ETV6-NTRK3-WT, BaF3 ETV6-NTRK3-G623R, and Ba/F3 SLC34A2-ROS1-WT stable cell strains, 5000 cells/well.” for “kit.”
as §3, §4
c) Cells in the 96-well plate were incubated overnight at 37° C. with 5% CO2 and 95% humidity.
as §5
b) The cells in the 96-well plate added with compound were incubated for 72 hours at 37° C. with 5% CO2 and 95% humidity, followed by the CTG (CellTiter-Glo) analysis.
as §6, §7, §8, §9, §10, §11

[11] = target: T11, Ba/F3 LMNA-NTRK1-F589L (Homo sapiens, UniProt P04629, F589L, cells depend on it); assay: as above; format: cell-based; details: read-out: Half maximal inhibitory concentration IC50 of cells, Ba/F3 LMNA-NTRK1-F589L
T11 construct: fused on or other part: N-terminal part of LMNA as fusion partner (part of the key); P02545 (Prelamin-A/C)
Experimental: as §2, §3, §4, §5, §6, §7, §8, §9, §10, §11

[12] = target: T12, BaF3 ETV6-NTRK3-WT (Homo sapiens, UniProt Q16288); assay: as above; format: cell-based; details: read-out: Half maximal inhibitory concentration IC50 of cells, BaF3 ETV6-NTRK3-WT
T12 construct: fused on or other part: N-terminal part of ETV6 (TEL) as fusion partner (part of the key); P41212 (Transcription factor ETV6)
Experimental: as §2, §3, §4, §5, §6, §7, §8, §9, §10, §11

[13] = target: T13, BaF3 LMNA-NTRK1-G667A (Homo sapiens, UniProt P04629, G667A, cells depend on it); assay: as above; format: cell-based; details: read-out: Half maximal inhibitory concentration IC50 of cells, BaF3 LMNA-NTRK1-G667A
T13 construct: fused on or other part: N-terminal part of LMNA as fusion partner (part of the key); P02545 (Prelamin-A/C)
Experimental: as §2, §3, §4, §5, §6, §7, §8, §9, §10, §11

[14] = Pharmacokinetic test of compounds in mice (plasma, LC/MS/MS); format: in vivo, male CD-1 mice; details: for Cmax: read-out: Peak concentration Cmax; for AUC(0-t): read-out: Area under the curve AUC0-last
Experimental: Experimental purpose: male CD-1 mice aged 7-9 weeks were selected as test animals, and the drug concentrations of the compounds in plasma at different time points after single intravenous injection (IV) and intragastric administration (PO) of the compounds were measured by an LC/MS/MS method, so that the pharmacokinetic behavior of the compounds disclosed herein in mice was studied, and the pharmacokinetic characteristic of the compounds was evaluated.
(§12) Drug preparation: the compounds were all prepared into clear solution by taking 5% DMSO+10% solutol+85% water as vehicle, and were used for administration in IV and PO groups. The dose of each compound administered was: IV, 3 mg/kg; PO, 10 mg/kg.

[15] = Pharmacokinetic test of compounds in rats (plasma, LC/MS/MS); format: in vivo, male SD rats
Experimental: Experimental purpose: male SD rats aged 7-9 weeks were selected as test animals, and the drug concentrations of the compounds in plasma at different time points after single intravenous injection (IV) and intragastric administration (PO) of the compounds were measured by an LC/MS/MS method, so that the pharmacokinetic behavior of the compounds disclosed herein in rats was studied, and the pharmacokinetic characteristic of the compounds was evaluated.
as §12

[16] = male, CD-1, mouse, plasma, PO, 10 mg/kg

T1 sequence (P04629 33-796): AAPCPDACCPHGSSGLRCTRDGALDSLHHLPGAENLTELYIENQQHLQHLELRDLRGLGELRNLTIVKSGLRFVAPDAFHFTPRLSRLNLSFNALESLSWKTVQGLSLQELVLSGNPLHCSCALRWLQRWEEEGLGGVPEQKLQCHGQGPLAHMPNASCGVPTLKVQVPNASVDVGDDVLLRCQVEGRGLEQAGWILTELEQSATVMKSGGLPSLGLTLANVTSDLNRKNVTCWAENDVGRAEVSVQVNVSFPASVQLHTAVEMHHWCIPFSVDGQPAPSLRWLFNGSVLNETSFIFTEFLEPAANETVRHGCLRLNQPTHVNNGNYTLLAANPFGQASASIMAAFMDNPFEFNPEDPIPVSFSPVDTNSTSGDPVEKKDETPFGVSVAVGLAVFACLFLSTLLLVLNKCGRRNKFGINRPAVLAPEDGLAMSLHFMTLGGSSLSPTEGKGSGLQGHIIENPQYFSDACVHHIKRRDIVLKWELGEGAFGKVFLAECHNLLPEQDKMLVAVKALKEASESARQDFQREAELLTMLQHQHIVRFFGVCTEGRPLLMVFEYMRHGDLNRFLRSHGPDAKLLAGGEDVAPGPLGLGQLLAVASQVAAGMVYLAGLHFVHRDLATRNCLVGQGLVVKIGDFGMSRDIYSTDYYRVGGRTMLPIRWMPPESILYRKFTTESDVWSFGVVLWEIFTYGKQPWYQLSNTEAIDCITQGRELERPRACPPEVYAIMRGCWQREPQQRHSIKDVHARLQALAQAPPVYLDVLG
T3 sequence (P08922 28-2347): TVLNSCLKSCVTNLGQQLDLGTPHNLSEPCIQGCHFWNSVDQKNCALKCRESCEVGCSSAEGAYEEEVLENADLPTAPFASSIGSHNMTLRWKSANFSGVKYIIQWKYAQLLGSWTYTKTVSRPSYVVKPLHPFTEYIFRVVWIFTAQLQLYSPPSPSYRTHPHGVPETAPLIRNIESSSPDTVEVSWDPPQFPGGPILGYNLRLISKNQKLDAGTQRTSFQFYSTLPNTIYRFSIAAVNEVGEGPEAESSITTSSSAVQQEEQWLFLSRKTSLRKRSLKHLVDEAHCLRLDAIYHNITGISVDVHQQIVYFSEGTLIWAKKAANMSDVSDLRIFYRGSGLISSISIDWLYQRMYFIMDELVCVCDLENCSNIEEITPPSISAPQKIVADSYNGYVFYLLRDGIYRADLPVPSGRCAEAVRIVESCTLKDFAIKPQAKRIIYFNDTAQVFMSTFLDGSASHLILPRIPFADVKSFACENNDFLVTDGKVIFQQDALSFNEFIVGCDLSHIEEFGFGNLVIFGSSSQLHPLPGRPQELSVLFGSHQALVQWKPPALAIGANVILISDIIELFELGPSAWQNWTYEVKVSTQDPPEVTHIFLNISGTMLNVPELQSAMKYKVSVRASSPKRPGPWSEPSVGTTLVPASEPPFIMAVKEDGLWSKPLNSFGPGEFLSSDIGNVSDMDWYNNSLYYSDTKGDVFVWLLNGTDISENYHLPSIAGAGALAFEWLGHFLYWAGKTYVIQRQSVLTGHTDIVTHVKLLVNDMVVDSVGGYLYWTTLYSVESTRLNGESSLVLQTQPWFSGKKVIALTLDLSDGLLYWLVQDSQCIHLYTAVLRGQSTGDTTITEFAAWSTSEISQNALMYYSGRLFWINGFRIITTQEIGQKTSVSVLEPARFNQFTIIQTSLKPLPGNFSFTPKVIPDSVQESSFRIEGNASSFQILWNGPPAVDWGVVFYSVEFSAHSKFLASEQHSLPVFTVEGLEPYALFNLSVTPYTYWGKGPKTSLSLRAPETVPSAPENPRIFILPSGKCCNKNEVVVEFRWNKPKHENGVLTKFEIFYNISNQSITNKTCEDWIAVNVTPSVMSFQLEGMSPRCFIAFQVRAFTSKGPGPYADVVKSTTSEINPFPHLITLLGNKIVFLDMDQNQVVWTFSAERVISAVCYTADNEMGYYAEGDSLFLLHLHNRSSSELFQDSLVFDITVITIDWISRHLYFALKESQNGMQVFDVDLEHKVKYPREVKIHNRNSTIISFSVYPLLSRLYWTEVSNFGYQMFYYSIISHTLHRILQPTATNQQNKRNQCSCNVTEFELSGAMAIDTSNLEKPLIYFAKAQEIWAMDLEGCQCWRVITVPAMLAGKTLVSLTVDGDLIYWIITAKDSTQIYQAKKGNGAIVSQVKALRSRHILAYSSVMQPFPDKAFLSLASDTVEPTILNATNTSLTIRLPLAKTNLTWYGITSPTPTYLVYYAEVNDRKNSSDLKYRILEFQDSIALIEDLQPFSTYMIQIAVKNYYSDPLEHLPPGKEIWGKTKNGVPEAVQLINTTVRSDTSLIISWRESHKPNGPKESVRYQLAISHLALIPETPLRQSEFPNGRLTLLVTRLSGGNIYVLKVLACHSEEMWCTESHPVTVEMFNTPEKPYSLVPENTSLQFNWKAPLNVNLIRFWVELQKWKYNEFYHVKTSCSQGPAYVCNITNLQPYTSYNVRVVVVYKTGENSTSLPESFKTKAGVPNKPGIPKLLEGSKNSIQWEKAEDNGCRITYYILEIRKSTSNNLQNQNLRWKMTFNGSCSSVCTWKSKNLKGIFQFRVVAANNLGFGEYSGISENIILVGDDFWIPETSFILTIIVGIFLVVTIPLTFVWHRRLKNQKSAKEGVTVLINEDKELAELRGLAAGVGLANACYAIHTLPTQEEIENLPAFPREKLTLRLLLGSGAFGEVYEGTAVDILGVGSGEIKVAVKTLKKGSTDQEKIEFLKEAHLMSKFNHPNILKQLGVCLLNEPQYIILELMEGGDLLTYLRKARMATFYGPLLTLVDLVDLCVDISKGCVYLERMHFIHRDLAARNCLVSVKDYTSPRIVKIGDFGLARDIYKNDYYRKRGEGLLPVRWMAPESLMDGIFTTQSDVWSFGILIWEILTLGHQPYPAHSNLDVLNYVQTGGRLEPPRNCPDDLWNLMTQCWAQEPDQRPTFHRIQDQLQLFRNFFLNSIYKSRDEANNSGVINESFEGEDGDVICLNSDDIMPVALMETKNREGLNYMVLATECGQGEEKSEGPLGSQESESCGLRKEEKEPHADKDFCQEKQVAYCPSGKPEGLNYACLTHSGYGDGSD
T7 sequence (P04629 whole entry, stated change not applied, the tested form may be a part): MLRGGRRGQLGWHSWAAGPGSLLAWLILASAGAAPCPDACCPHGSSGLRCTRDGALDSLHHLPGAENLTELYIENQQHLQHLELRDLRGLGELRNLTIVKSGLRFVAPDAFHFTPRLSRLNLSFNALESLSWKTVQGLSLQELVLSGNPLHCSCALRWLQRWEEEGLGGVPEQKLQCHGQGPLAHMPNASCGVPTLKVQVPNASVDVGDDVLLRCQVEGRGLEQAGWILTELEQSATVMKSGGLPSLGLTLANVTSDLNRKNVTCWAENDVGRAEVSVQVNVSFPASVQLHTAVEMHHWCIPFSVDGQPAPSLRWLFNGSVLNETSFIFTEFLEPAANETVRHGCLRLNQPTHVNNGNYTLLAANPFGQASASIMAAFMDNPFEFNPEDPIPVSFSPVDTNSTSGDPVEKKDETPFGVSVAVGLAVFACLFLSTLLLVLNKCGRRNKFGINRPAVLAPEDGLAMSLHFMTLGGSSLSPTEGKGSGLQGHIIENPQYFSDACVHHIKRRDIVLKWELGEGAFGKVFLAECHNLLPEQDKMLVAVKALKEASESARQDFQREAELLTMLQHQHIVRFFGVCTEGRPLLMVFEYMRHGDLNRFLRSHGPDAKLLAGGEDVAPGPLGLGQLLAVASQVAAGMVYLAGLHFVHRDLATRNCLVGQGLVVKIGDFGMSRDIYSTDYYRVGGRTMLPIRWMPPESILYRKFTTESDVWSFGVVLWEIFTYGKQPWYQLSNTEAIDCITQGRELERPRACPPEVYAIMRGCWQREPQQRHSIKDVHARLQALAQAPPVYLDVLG
T4 sequence (P04629 33-796 G595R): as the sequence (P04629 33-796) above, with G563R counted along it

## O=C1NC2(CC2)COc2ncc(F)cc2C2COCCN2c2ccn3ncc1c3n2 (single isomer, unassigned) [WX001A]
[1]
  IC50: > 1000 nM

## O=C1NC2(CC2)COc2ccc(F)cc2C2CCCCN2c2ccn3ncc1c3n2 (single isomer, unassigned) [WX002A]
[2]
  IC50: 18.5 nM
[3]
  IC50: 0.2 nM
[1]
  IC50: 3.2 nM
[4]
  IC50: 2.1 nM
[5]
  IC50: 0.7 nM
[6]
  IC50: 0.2 nM
[7]
  GI50: 0.2 nM
[8]
  GI50: 12.6 nM
[9]
  GI50: 0.4 nM
[10]
  GI50: 5.8 nM

## O=C1NC2(CC2)CNc2ncc(F)cc2C2COCCN2c2ccn3ncc1c3n2 (single isomer, unassigned) [WX010A]
[2]
  IC50: > 1000 nM
[3]
  IC50: 28.7 nM
[1]
  IC50: 4.1 nM
[4]
  IC50: 8.9 nM
[5]
  IC50: 189 nM
[6]
  IC50: 0.3 nM

## O=C1NC2(CC2)CNc2ncc(F)cc2C2COCCN2c2ccn3ncc1c3n2 (single isomer, unassigned) [WX010B]
[1]
  IC50: > 1000 nM

## O=C1NC2(CC2)COc2ccc(F)cc2[C@@H]2CCCCN2c2ccn3ncc1c3n2 [WX002B]
[1]
  IC50: 526 nM

## C[C@H]1CNC(=O)c2cnn3ccc(nc23)N2CCOC[C@H]2c2cc(F)cnc2O1 [WX004A]
[1]
  IC50: 441 nM

## C[C@H]1CNC(=O)c2cnn3ccc(nc23)N2CCOC[C@@H]2c2cc(F)cnc2O1 [WX004B]
[2]
  IC50: 134 nM
[3]
  IC50: 8.1 nM
[1]
  IC50: 2.7 nM
[4]
  IC50: 2.7 nM
[5]
  IC50: 18.2 nM
[6]
  IC50: 0.3 nM
[11]
  GI50: 37.4 nM
[7]
  GI50: 0.8 nM
[12]
  GI50: 1.5 nM
[9]
  GI50: 1.2 nM
[13]
  GI50: 3.9 nM
[10]
  GI50: 3.2 nM
[14]; IV, 3 mg/kg
  Apparent clearance Cl: 8.14 mL/min/kg
  Apparent volume of distribution Vd: 0.60 L/kg
  Area under the curve AUC0-last: 15.393 µM·h
  Half-life T1/2: 63 min
[14]; PO, 10 mg/kg
  Area under the curve AUC0-last: 37.294 µM·h
  Bioavailability F %: 73%
  Time to peak Tmax: 30 min
  Cmax: 11.1 µM
[15]; IV, 3 mg/kg
  Apparent clearance Cl: 30.9 mL/min/kg
  Apparent volume of distribution Vd: 1.4 L/kg
  Area under the curve AUC0-last: 4.076 µM·h
  Half-life T1/2: 36 min
[15]; PO, 10 mg/kg
  Area under the curve AUC0-last: 4.715 µM·h
  Bioavailability F %: 35%
  Time to peak Tmax: 48 min
[15]; PO, 10 mg/kg, read-out: Peak concentration Cmax
  Cmax: 1.77 µM

## O=C1N[C@@H]2COC[C@@H]2Oc2ncc(F)cc2C2COCCN2c2ccn3ncc1c3n2 (some centres unmarked) [WX005A]
[11]
  GI50: 56.6 nM
[7]
  GI50: 0.7 nM
[8]
  GI50: 246 nM
[12]
  GI50: 2.9 nM
[9]
  GI50: 5.2 nM
[13]
  GI50: 3.8 nM
[10]
  GI50: 11 nM
[14]; IV, 3 mg/kg
  Apparent clearance Cl: 9.78 mL/min/kg
[14]; male, CD-1, mouse, plasma, IV, 3 mg/kg, read-out: Apparent volume of distribution Vd
  Vd: 0.78 L/kg
[14]; male, CD-1, mouse, plasma, IV, 3 mg/kg
  AUC(0-t): 12 µM·h
[14]; male, CD-1, mouse, plasma, IV, 3 mg/kg, read-out: Half-life T1/2 (converted)
  half-life: 61.2 min
[14]; [16]
  AUC(0-t): 21.4 µM·h
  Cmax: 7.12 µM
[14]; male, CD-1, mouse, plasma, PO, 10 mg/kg, read-out: Bioavailability F %
  bioavailability: 54%
[14]; male, CD-1, mouse, plasma, PO, 10 mg/kg, read-out: Time to peak Tmax
  Tmax: 22.8 min

## O=C1N[C@@H]2COC[C@@H]2Oc2ncc(F)cc2[C@H]2COCCN2c2ccn3ncc1c3n2 [WX005A]
[2]
  IC50: 103 nM
[3]
  IC50: 3.1 nM
[1]
  IC50: 4.7 nM
[4]
  IC50: 0.3 nM
[5]
  IC50: 0.5 nM
[6]
  IC50: 0.1 nM

## O=C1N[C@@H]2COC[C@@H]2Oc2ncc(F)cc2[C@@H]2COCCN2c2ccn3ncc1c3n2 [WX005B]
[1]
  IC50: > 1000 nM

## O=C1NC2(CC2)COc2ncc(F)cc2[C@@H]2CCOCCN2c2ccn3ncc1c3n2 [WX009B]
[1]
  IC50: > 1000 nM
